Broadly, the IC50 is the point on the concentration scale where inhibition reaches its midpoint.

Read-outs that look alike come from different tables or passages of the source.

The values that follow come from patent US20230201149A1, “METHODS OF ANTIPATHOGENIC TREATMENT” (priority 2020, published 2023).

One data set deals with severe COVID patients. The settings on record: cited from earlier work.
The next data set deals with ARDS patients. The conditions noted are these: intravenous, P<0.001; cited from earlier work.
For data set [1] the following is noted: Alzheimer patients, 200 microg/day, cited from earlier work.
For data set [2], the system named is COVID-19 patients. The settings on record: 50 treated patients, cited from earlier work.
The test system of the next data set is COVID-infected cells. The settings on record: cited from earlier work.
Data set [3] concerns COVID-19 coronavirus in human lung cells. The settings on record: read-out: 50% kill rate IC50; cited from earlier work.
Data set [4] shares this test system. Description: Antiviral potency in human lung cells. It counts as cell-based. The procedure: Earlier research of Nafamostat indicated it would not have sufficient concentration in the plasma to cause death of the virus. This was based on trialing drugs in monkey kidney cells. It was determined it would be more realistic to trial the drugs in human lung cells. The results were dramatic in that vastly different effects resulted.

The next data set relates to COVID-19. The conditions noted are these: cited from earlier work.
For data set [5] the following is noted: elderly subjects, six months of 45 mg zinc/day as a gluconate; cited from earlier work.
Data set [6] has as its system SARS-Cov-2. Description: Inhibition of replication of SARS-Cov-2. Format: cell-based.
Data set [7] has as its system SARS-Cov-2. The conditions noted are these: replication of SARS-Cov-2, cited from earlier work.
The test system of data set [8] is COVID-19 patients. The conditions noted are these: cited from earlier work; for inflammatory markers (CRP and ferritin): during IV N-acetylcysteine administration.
For data set [9] the following is noted: in vivo, cited from earlier work.

With Heparin, in the data set with severe COVID patients (less severe cases), the “benefit in less severe cases” value is given as “no benefit”. Also, the death rate in the data set with severe COVID patients (most severe cases, reduced from 64%) was 40%.
Consider `[Se]` [selenium], for which, in the data set on ARDS patients, the “drop in IL-1beta, R value” is reported as −0.624 and the “drop in IL-6, R value” was 0.642. In addition, the “serum high sensitivity C-reactive protein” value in data set [1] (P<0.001) is “reduced”. For the same compound, in data set [1] (P=0.001), the total glutathione entry was “significantly increased”.
For `C=C1CC[C@H](O)C/C1=C/C=C1\CCC[C@]2(C)[C@@H]([C@H](C)CCCC(C)(C)O)CC[C@@H]12` [calcifediol], in the data set on COVID-19 patients [2] (oral, untreated 50%), the “patients requiring admission to the ICU” value was 2%. In the data set with COVID-19 patients [2], the deaths result is on record as “none died”.
`N=C(N)c1ccc2cc(OC(=O)c3ccc(N=C(N)N)cc3)ccc2c1` [Nafamostat]: in the data set with COVID-infected cells, the “COVID-induced cytopathogenic effect (CPE)” value is “inhibits”. The “effect on the virus replication cycle” value in the data set with COVID-infected cells (high levels of double-strand RNA in treated infected cells) is on record as “limited effects”. For the same compound, the IC50 in [3] is 2.2 nM. The “decrease of IC50, human lung cells vs monkey kidney cells” value in data set [4] was 6000 fold. The “potency relative to Remdesivir” value in data set [4] (human lung cells) came out at 600 fold.
Consider Aprotinin, for which the “increase of effectiveness by omeprazole” value with COVID-19 was 2.7 fold.
As to `[Zn]` [Zinc], the “concentration of plasma hsCRP, IL-6, MCP-1, VCAM-1, secretory phospholipase A2, MDA+HAE” value in [5] is reported as “decreases”.
Turning to `Cc1c(O)cccc1C(=O)N[C@@H](CSc1ccccc1)[C@H](O)CN1C[C@H]2CCCC[C@H]2C[C@H]1C(=O)NC(C)(C)C` [nelfinavir, Nelfinavir], the “trough and peak serum concentration relative to EC50” value in the data set on SARS-Cov-2 [6] was “three to six times higher”. Moreover, the EC50 in the data set with SARS-Cov-2 [7] (read-out: effective concentration for 50% inhibition (EC50)) is 1130 nM. Further, in the data set with SARS-Cov-2 [7] (read-out: effective concentration for 90% inhibition (EC90)), the EC90 is 1760 nM.
On to `CC(=O)N[C@@H](CS)C(=O)O` [N-acetylcysteine], for which, in the data set on COVID-19 patients [8] (G6PD-deficient patient, IV NAC 600 mg every 12 h for six days), the “bilirubin (total and direct)” value was “sustained reduction”. Moreover, in the data set on COVID-19 patients [8] (G6PD-deficient patient, after IV NAC 30,000 mg over 24 h for two days, peak before 263), the ALT is 100 U/L. Besides, the AST in the data set on COVID-19 patients [8] (G6PD-deficient patient, after IV NAC 30,000 mg over 24 h for two days, peak before 338) is on record as 62 U/L. In addition, in the data set with COVID-19 patients [8] (G6PD-deficient patient, sustained after the first dose), the NLR result is on record as “decrease”. Besides, the “inflammatory markers (CRP and ferritin)” value is “significant overall reduction” with COVID-19 patients [8] and “significantly reduced” in the data set with COVID-19 patients [8] (listed as NAC). The patients eventually discharged entry in the data set with COVID-19 patients [8] (of ten patients) was “Eight”. In the data set on COVID-19 patients [8] (ten respirator-dependent COVID-19 patients), the lung functions entry is “improved”. The bioavailability in [9] (po) is given as 6-10%. Besides, in data set [9], the “half-life, reduced N-acetylcysteine” value was “about 2 h”. Besides, the “half-life, total N-acetylcysteine” value in data set [9] is given as “about 6 h”.
